{"source": "paper PMC4965013", "about": "“Open Source Drug Discovery with the Malaria Box Compound Collection for Neglected Diseases and Beyond” (PLoS Pathogens, 2016)", "key": {"[1]": {"test_system": "P. falciparum 3D7 trophozoites", "experiment": "Metabolomic fingerprint profiling LC-MS", "type": "cell-based, Plasmodium falciparum", "design": "UDP-D-glucose / ADP-D-glucose: unit not given here"}, "[2]": {"test_system": "Saccharomyces cerevisiae strain WC081", "experiment": "Yeast disc diffusion in combination with artemisinin", "type": "cell-based", "conditions": "10 µL of 1 mM on disc, 0.2 µM artemisinin, read-out: larger zone size with artemisinin (SCG+artemisinin minus SCG)", "excerpt": "Yeast screening for enhanced drug effects in combination with artemisinin, Jensen group (data presented first in this paper). […] Yeast (S. cerevisiae) was used as a proxy for P. falciparum, because the killing of S. cerevisiae and P. falciparum appear to have similarities. Saccharomyces cerevisiae strain WC081 (Mat a, leu2∆0, lys2∆0, ura3∆0, his3∆1, pdr1∆::HIS3, pdr3∆::kanMX4) was utilized and was originally derived from strain BY4742. Regulators of Multi-drug resistance transporters have been deleted from this strain to enhance the toxicity of compounds. Assay utilized the disc diffusion method with the observance of a clear zone indicating inhibition of growth. Synthetic complete medium containing 3% glycerol as a carbon source (SCG) was used in each assay. 10 µL of each compound at 1 mM was added to a paper disc which was placed on SCG and SCG^+artemisinin (0.2 µM) plates seeded with 10e6 yeast cells. Plates were incubated at 30 °C for 5 days and clear zones were measured. Compounds that produced a larger clear zone in the presence of artemisinin were considered to have an additive interaction with artemisinin. Results are reported as diameter of clear zone on SCG^+artemisinin plates - diameter of clear zone on SCG plates without artemisinin."}, "P. falciparum": {"test_system": "P. falciparum", "experiment": "EC50 listed in S2 Table Metabolomics (used to set the concentration tested)", "type": "cell-based", "conditions": "Plasmodium falciparum; EC50 used for Factor_XEC50 in metabolomics; read-out: EC50_nM"}, "Atg8-Atg3": {"test_system": "Atg8-Atg3", "design": "method as in ref [38] (a number printed in a supplementary file, which may have a reference list of its own: not looked up in the article's list)", "conditions": "ref [38]; cited from earlier work"}, "[3]": {"conditions": "metabolite level change after treatment"}}}
{"smiles": "CSc1ccccc1C(=O)Nc1nc(-c2ccccn2)cs1", "note": "[MMV001246]", "values": [{"measurement": "Acetyllysine", "setting": "[1]; S2 Table Metabolomics, metabolite Acetyllysine", "value": 0.4532}, {"measurement": "N-acetyl-L-ornithine", "setting": "[1]; S2 Table Metabolomics, metabolite N-acetyl-L-ornithine", "value": 0.4087}, {"measurement": "N-carbamoyl-L-aspartate", "setting": "[1]; S2 Table Metabolomics, metabolite N-carbamoyl-L-aspartate", "value": 0.8167}, {"measurement": "NADPH", "setting": "[1]; S2 Table Metabolomics, metabolite NADPH", "value": -0.6152}, {"measurement": "dAMP", "setting": "[1]; S2 Table Metabolomics, metabolite dAMP", "value": 0.5623}, {"measurement": "dCMP", "setting": "[1]; S2 Table Metabolomics, metabolite dCMP", "value": 1.316}, {"measurement": "dTDP", "setting": "[1]; S2 Table Metabolomics, metabolite dTDP", "value": 1.003}, {"measurement": "dTMP", "setting": "[1]; S2 Table Metabolomics, metabolite dTMP", "value": 1.155}, {"measurement": "dTTP", "setting": "[1]; S2 Table Metabolomics, metabolite dTTP", "value": 0.605}, {"measurement": "dihydroorotate", "setting": "[1]; S2 Table Metabolomics, metabolite dihydroorotate", "value": 0.8484}, {"measurement": "orotate", "setting": "[1]; S2 Table Metabolomics, metabolite orotate", "value": -0.04882}, {"measurement": "DLH", "setting": "[1]; S2 Table Metabolomics, peptide DLH", "value": -0.1638}, {"measurement": "DLS/SDL/SID", "setting": "[1]; S2 Table Metabolomics, peptide DLS/SDL/SID", "value": -0.1191}, {"measurement": "PD", "setting": "[1]; S2 Table Metabolomics, peptide PD", "value": 1.085}, {"measurement": "PEE", "setting": "[1]; S2 Table Metabolomics, peptide PEE", "value": 0.2734}, {"measurement": "PVNF", "setting": "[1]; S2 Table Metabolomics, peptide PVNF", "value": -0.2587}, {"measurement": "3-phosphoglycerate", "setting": "[1]; metabolite 3-phosphoglycerate, S2 Table Metabolomics", "value": -0.3067}, {"measurement": "ADP-D-glucose", "setting": "[1]; metabolite ADP-D-glucose, S2 Table Metabolomics", "value": 0.2637}, {"measurement": "ATP", "setting": "[1]; metabolite ATP, S2 Table Metabolomics", "value": -0.316}, {"measurement": "CDP", "setting": "[1]; metabolite CDP, S2 Table Metabolomics, change in metabolite level after compound treatment", "value": 1.161}, {"measurement": "D-sedoheptulose-1/7-phosphate", "setting": "[1]; metabolite D-sedoheptulose-1/7-phosphate, S2 Table Metabolomics, change in metabolite level after compound treatment", "value": 0.9582}, {"measurement": "FAD", "setting": "[1]; metabolite FAD, S2 Table Metabolomics", "value": -0.06449}, {"measurement": "GMP", "setting": "[1]; metabolite GMP, S2 Table Metabolomics, change in metabolite level after compound treatment", "value": -0.2602}, {"measurement": "NAD+", "setting": "[1]; metabolite NAD+, S2 Table Metabolomics", "value": 0.05063}, {"measurement": "NADP+", "setting": "[1]; metabolite NADP+, S2 Table Metabolomics", "value": 0.1259}, {"measurement": "Octoluse Bisphosphate", "setting": "[1]; metabolite Octoluse Bisphosphate, S2 Table Metabolomics, change in metabolite level after compound treatment", "value": -0.02993}, {"measurement": "Pyroglutamic acid", "setting": "[1]; metabolite Pyroglutamic acid, S2 Table Metabolomics", "value": -0.6363}, {"measurement": "UDP-D-glucose", "setting": "[1]; metabolite UDP-D-glucose, S2 Table Metabolomics", "value": 0.1597}, {"measurement": "UDP-D-glucuronate", "setting": "[1]; metabolite UDP-D-glucuronate, S2 Table Metabolomics", "value": 0.09079}, {"measurement": "UDP-N-acetyl-glucosamine", "setting": "[1]; metabolite UDP-N-acetyl-glucosamine, S2 Table Metabolomics", "value": 0.2113}, {"measurement": "UDP", "setting": "[1]; metabolite UDP, S2 Table Metabolomics, change in metabolite level after compound treatment", "value": 1.27}, {"measurement": "UMP", "setting": "[1]; metabolite UMP, S2 Table Metabolomics, change in metabolite level after compound treatment", "value": -0.2249}, {"measurement": "UTP", "setting": "[1]; metabolite UTP, S2 Table Metabolomics, change in metabolite level after compound treatment", "value": 0.2071}, {"measurement": "a-ketoglutarate", "setting": "[1]; metabolite a-ketoglutarate, S2 Table Metabolomics", "value": -0.3343}, {"measurement": "citrate/isocitrate", "setting": "[1]; metabolite citrate/isocitrate, S2 Table Metabolomics, change in metabolite level after compound treatment", "value": 0.6139}, {"measurement": "cytidine", "setting": "[1]; metabolite cytidine, S2 Table Metabolomics", "value": -0.1132}, {"measurement": "dATP", "setting": "[1]; metabolite dATP, S2 Table Metabolomics", "value": -0.2342}, {"measurement": "dGMP/AMP", "setting": "[1]; metabolite dGMP/AMP, S2 Table Metabolomics, change in metabolite level after compound treatment", "value": 0.5523}, {"measurement": "fumarate", "setting": "[1]; metabolite fumarate, S2 Table Metabolomics, change in metabolite level after compound treatment", "value": 0.07419}, {"measurement": "glucose-1/6-phosphate", "setting": "[1]; metabolite glucose-1/6-phosphate, S2 Table Metabolomics, change in metabolite level after compound treatment", "value": 0.3611}, {"measurement": "glycerate", "setting": "[1]; metabolite glycerate, S2 Table Metabolomics, change in metabolite level after compound treatment", "value": -0.4138}, {"measurement": "guanine", "setting": "[1]; metabolite guanine, S2 Table Metabolomics, change in metabolite level after compound treatment", "value": 0.2842}, {"measurement": "guanosine", "setting": "[1]; metabolite guanosine, S2 Table Metabolomics, change in metabolite level after compound treatment", "value": 0.03562}, {"measurement": "hypoxanthine", "setting": "[1]; metabolite hypoxanthine, S2 Table Metabolomics", "value": -0.2148}, {"measurement": "indole", "setting": "[1]; metabolite indole, S2 Table Metabolomics", "value": -0.09781}, {"measurement": "inosine", "setting": "[1]; metabolite inosine, S2 Table Metabolomics, change in metabolite level after compound treatment", "value": -0.005486}, {"measurement": "2_3-Diphosphoglyceric acid", "setting": "[1]; [3]", "value": 0.509}, {"measurement": "4-phosphopantothenate", "setting": "[1]; [3]", "value": 0.08862}, {"measurement": "6-phospho-D-gluconate", "setting": "[1]; [3]", "value": 0.2643}, {"measurement": "FMN", "setting": "[1]; [3]", "value": 0.1616}, {"measurement": "IMP", "setting": "[1]; [3]", "value": 0.3566}, {"measurement": "Pyrophosphate", "setting": "[1]; [3]", "value": 0.4487}, {"measurement": "Sedoheptoluse bisphosphate", "setting": "[1]; [3]", "value": -0.09548}, {"measurement": "cyclic-AMP", "setting": "[1]; [3]", "value": -0.2042}, {"measurement": "glutathione disulfide", "setting": "[1]; [3]", "value": 0.1188}, {"measurement": "lactate", "setting": "[1]; [3]", "value": -0.259}, {"measurement": "myo-inositol", "setting": "[1]; [3]", "value": -0.2589}, {"measurement": "nicotinate", "setting": "[1]; metabolite nicotinate, S2 Table Metabolomics", "value": -0.09283}, {"measurement": "ornithine", "setting": "[1]; metabolite ornithine, S2 Table Metabolomics", "value": 0.2998}, {"measurement": "phosphoenolpyruvate", "setting": "[1]; metabolite phosphoenolpyruvate, S2 Table Metabolomics", "value": -0.3081}, {"measurement": "pyruvate", "setting": "[1]; metabolite pyruvate, S2 Table Metabolomics, change in metabolite level after compound treatment", "value": -0.1972}, {"measurement": "ribose-phosphate", "setting": "[1]; metabolite ribose-phosphate, S2 Table Metabolomics", "value": -0.4595}, {"measurement": "sarcosine/alanine", "setting": "[1]; metabolite sarcosine/alanine, S2 Table Metabolomics, change in metabolite level after compound treatment", "value": 0.1583}, {"measurement": "sn-glycerol-3-phosphate", "setting": "[1]; metabolite sn-glycerol-3-phosphate, S2 Table Metabolomics", "value": -0.08199}, {"measurement": "succinate/methylmalonic acid", "setting": "[1]; metabolite succinate/methylmalonic acid, S2 Table Metabolomics, change in metabolite level after compound treatment", "value": 0.009107}, {"measurement": "uridine", "setting": "[1]; metabolite uridine, S2 Table Metabolomics, change in metabolite level after compound treatment", "value": 0.08525}, {"measurement": "xanthosine", "setting": "[1]; metabolite xanthosine, S2 Table Metabolomics, change in metabolite level after compound treatment", "value": -0.2265}, {"measurement": "zone of inhibition at 1000 µM", "setting": "[2]", "value": 3, "unit": "mm"}, {"measurement": "EC50", "setting": "P. falciparum", "value": 206, "unit": "nM"}, {"measurement": "PPI inhibitors of Atg8-Atg3 interaction", "setting": "Atg8-Atg3", "value": "PPI inhibitors"}]}
